ChEMBL document CHEMBL2413072, “Synthesis and in vitro anticancer studies of novel C-2 arylidene congeners of lantadenes” (2013)

What was measured:
Type in all cases: functional
KM12 [1] = assay: Growth inhibition of human KM12 cells by sulforhodamine B assay
HCT-15 [2] = assay: Growth inhibition of human HCT15 cells by sulforhodamine B assay
COLO 205 [3] = assay: Growth inhibition of human COLO205 cells by sulforhodamine B assay
NCI-H460 = assay: Growth inhibition of human NCI-H460 cells by sulforhodamine B assay
MOLT-4 = assay: Growth inhibition of human MOLT4 cells by sulforhodamine B assay
IGROV-1 [4] = assay: Growth inhibition of human IGROV1 cells assessed as cell growth at 10^-8 M by sulforhodamine B assay; conditions: read-out: Activity
MDA-MB-435 = assay: Growth inhibition of human MDA-MB-435 cells assessed as cell growth at 10^-8 M by sulforhodamine B assay; conditions: read-out: Activity
HCT-15 [5] = assay: Growth inhibition of human HCT15 cells assessed as cell growth at 10^-8 M by sulforhodamine B assay; conditions: read-out: Activity
COLO 205 [6] = assay: Growth inhibition of human COLO205 cells assessed as cell growth at 10^-8 M by sulforhodamine B assay; conditions: read-out: Activity
RPMI-8226 = assay: Growth inhibition of human RPMI8226 cells assessed as cell growth at 10^-8 M by sulforhodamine B assay; conditions: read-out: Activity
MDA-MB-231 [7] = assay: Growth inhibition of human MDA-MB-231 cells by sulforhodamine B assay
MCF7 = assay: Growth inhibition of human MCF7 cells by sulforhodamine B assay
A498 = assay: Growth inhibition of human A498 cells by sulforhodamine B assay
OVCAR-3 = assay: Growth inhibition of human OVCAR3 cells by sulforhodamine B assay
M14 = assay: Growth inhibition of human M14 cells by sulforhodamine B assay
Malme-3M [8] = assay: Growth inhibition of human MALME-3M cells by sulforhodamine B assay
T47D = assay: Growth inhibition of human T47D cells assessed as cell growth at 10^-4 M by sulforhodamine B assay; conditions: read-out: Activity
[9] = Growth inhibition of human Hs 578T cells assessed as cell growth at 10^-4 M by sulforhodamine B assay; conditions: read-out: Activity
UO-31 [10] = assay: Growth inhibition of human UO31 cells assessed as cell growth at 10^-4 M by sulforhodamine B assay; conditions: read-out: Activity
OVCAR-4 = assay: Growth inhibition of human OVCAR4 cells assessed as cell growth at 10^-4 M by sulforhodamine B assay; conditions: read-out: Activity
IGROV-1 [11] = assay: Growth inhibition of human IGROV1 cells assessed as cell growth at 10^-4 M by sulforhodamine B assay; conditions: read-out: Activity
SNB-75 = assay: Growth inhibition of human SNB75 cells assessed as cell growth at 10^-4 M by sulforhodamine B assay; conditions: read-out: Activity
SNB-19 = assay: Growth inhibition of human SNB19 cells assessed as cell growth at 10^-4 M by sulforhodamine B assay; conditions: read-out: Activity
SF-539 = assay: Growth inhibition of human SF539 cells assessed as cell growth at 10^-4 M by sulforhodamine B assay; conditions: read-out: Activity
KM12 [12] = assay: Growth inhibition of human KM12 cells assessed as cell growth at 10^-4 M by sulforhodamine B assay; conditions: read-out: Activity
MDA-MB-231 [13] = assay: Growth inhibition of human MDA-MB-231 cells assessed as cell growth at 10^-6 M by sulforhodamine B assay; conditions: read-out: Activity
UO-31 [14] = assay: Growth inhibition of human UO31 cells assessed as cell growth at 10^-6 M by sulforhodamine B assay; conditions: read-out: Activity
TK-10 = assay: Growth inhibition of human TK10 cells assessed as cell growth at 10^-6 M by sulforhodamine B assay; conditions: read-out: Activity
786-0 = assay: Growth inhibition of human 786-0 cells assessed as cell growth at 10^-6 M by sulforhodamine B assay; conditions: read-out: Activity
IGROV-1 [15] = assay: Growth inhibition of human IGROV1 cells assessed as cell growth at 10^-6 M by sulforhodamine B assay; conditions: read-out: Activity
UACC-62 = assay: Growth inhibition of human UACC62 cells assessed as cell growth at 10^-6 M by sulforhodamine B assay; conditions: read-out: Activity
Malme-3M [16] = assay: Growth inhibition of human MALME-3M cells assessed as cell growth at 10^-6 M by sulforhodamine B assay; conditions: read-out: Activity
SR = assay: Growth inhibition of human SR cells assessed as cell growth at 10^-6 M by sulforhodamine B assay; conditions: read-out: Activity
BT-549 = assay: Growth inhibition of human BT549 cells assessed as cell growth at 10^-7 M by sulforhodamine B assay; conditions: read-out: Activity
RXF 393 = assay: Growth inhibition of human RXF393 cells assessed as cell growth at 10^-7 M by sulforhodamine B assay; conditions: read-out: Activity
OVCAR-8 = assay: Growth inhibition of human OVCAR8 cells assessed as cell growth at 10^-7 M by sulforhodamine B assay; conditions: read-out: Activity
OVCAR-5 = assay: Growth inhibition of human OVCAR5 cells assessed as cell growth at 10^-7 M by sulforhodamine B assay; conditions: read-out: Activity
PC-3 = assay: Growth inhibition of human PC3 cells assessed as cell growth at 10^-8 M by sulforhodamine B assay; conditions: read-out: Activity
[17] = read-out: LC50 (the source's name)
[18] = read-out: pLC50 (the source's name) (converted)

CC1(C)C[C@@H](O)[C@]2(C(=O)O)CC[C@]3(C)C(=CC[C@@H]4[C@@]5(C)C/C(=C\C=C\c6ccccc6)C(=O)C(C)(C)[C@@H]5CC[C@]43C)[C@@H]2C1
GI50 (KM12 [1]; read-out: GI50): 3.01 µM
LC50 (50% net cell kill) (KM12 [1]; read-out: LC50): 47.2 µM
TGI (KM12 [1]; read-out: TGI): 11.2 µM
GI50 (KM12 [1]; read-out: pGI50 (converted)): 3.02 µM
LC50 (50% net cell kill) (KM12 [1]; read-out: pLC50 (converted)): 46.8 µM
TGI (KM12 [1]; read-out: pTGI (converted)): 11.2 µM
GI50 (HCT-15 [2]; read-out: GI50): 3.22 µM
LC50 (50% lethal concentration) (HCT-15 [2]; read-out: LC50): 45.1 µM
TGI (HCT-15 [2]; read-out: TGI): 11.9 µM
GI50 (HCT-15 [2]; read-out: pGI50 (converted)): 3.24 µM
LC50 (50% lethal concentration) (HCT-15 [2]; read-out: pLC50 (converted)): 44.7 µM
TGI (HCT-15 [2]; read-out: pTGI (converted)): 12 µM
GI50 (COLO 205 [3]; read-out: GI50): 1.97 µM
LC50 (COLO 205 [3]; read-out: LC50): 6.36 µM
TGI (COLO 205 [3]; read-out: TGI): 3.54 µM
GI50 (COLO 205 [3]; read-out: pGI50 (converted)): 2 µM
LC50 (COLO 205 [3]; read-out: pLC50 (converted)): 6.31 µM
TGI (COLO 205 [3]; read-out: pTGI (converted)): 3.55 µM
GI50 (NCI-H460; read-out: GI50): 2.67 µM
LC50 (NCI-H460; read-out: LC50): 44.1 µM
TGI (NCI-H460; read-out: TGI): 7.6 µM
GI50 (NCI-H460; read-out: pGI50 (converted)): 2.69 µM
LC50 (NCI-H460; read-out: pLC50 (converted)): 43.7 µM
TGI (NCI-H460; read-out: pTGI (converted)): 7.59 µM
GI50 (MOLT-4; read-out: GI50): 2.48 µM
CC50 (MOLT-4; [17]): > 100 µM
TGI (MOLT-4; read-out: TGI): 7.84 µM
GI50 (MOLT-4; read-out: pGI50 (converted)): 2.45 µM
CC50 (MOLT-4; [18]): > 100 µM
TGI (MOLT-4; read-out: pTGI (converted)): 7.76 µM
growth at 0.01 µM (IGROV-1 [4]): 107%
growth at 0.01 µM (MDA-MB-435): 98%
growth at 0.01 µM (HCT-15 [5]): 97%
growth at 0.01 µM (COLO 205 [6]): 103%
growth at 0.01 µM (RPMI-8226): 98%
GI50 (MDA-MB-231 [7]; read-out: GI50): 2.02 µM
CC50 (MDA-MB-231 [7]; [17]): 12.5 µM
TGI (MDA-MB-231 [7]; read-out: TGI): 4.68 µM
GI50 (MDA-MB-231 [7]; read-out: pGI50 (converted)): 2.04 µM
CC50 (MDA-MB-231 [7]; [18]): 12.6 µM
TGI (MDA-MB-231 [7]; read-out: pTGI (converted)): 4.68 µM
GI50 (MCF7; read-out: GI50): 3.23 µM
CC50 (MCF7; [17]): 56.9 µM
TGI (MCF7; read-out: TGI): 12.3 µM
GI50 (MCF7; read-out: pGI50 (converted)): 3.24 µM
CC50 (MCF7; [18]): 57.5 µM
TGI (MCF7; read-out: pTGI (converted)): 12.3 µM
GI50 (A498; read-out: GI50): 2.55 µM
CC50 (A498; [17]): 35.2 µM
TGI (A498; read-out: TGI): 11.6 µM
GI50 (A498; read-out: pGI50 (converted)): 2.57 µM
CC50 (A498; [18]): 35.5 µM
TGI (A498; read-out: pTGI (converted)): 11.5 µM
GI50 (OVCAR-3; read-out: GI50): 2.04 µM
CC50 (OVCAR-3; [17]): 14.2 µM
TGI (OVCAR-3; read-out: TGI): 4.81 µM
GI50 (OVCAR-3; read-out: pGI50 (converted)): 2.04 µM
CC50 (OVCAR-3; [18]): 14.1 µM
TGI (OVCAR-3; read-out: pTGI (converted)): 4.79 µM
GI50 (M14; read-out: GI50): 3.74 µM
CC50 (M14; [17]): 52 µM
TGI (M14; read-out: TGI): 15.8 µM
GI50 (M14; read-out: pGI50 (converted)): 3.72 µM
CC50 (M14; [18]): 52.5 µM
TGI (M14; read-out: pTGI (converted)): 15.8 µM
GI50 (Malme-3M [8]; read-out: GI50): 2.57 µM
CC50 (Malme-3M [8]; [17]): 59.2 µM
TGI (Malme-3M [8]; read-out: TGI): 7.23 µM
GI50 (Malme-3M [8]; read-out: pGI50 (converted)): 2.57 µM
CC50 (Malme-3M [8]; [18]): 58.9 µM
TGI (Malme-3M [8]; read-out: pTGI (converted)): 7.24 µM
growth at 100 µM (T47D): -45%
growth at 100 µM [9]: -35%
growth at 100 µM (UO-31 [10]): -82%
growth at 100 µM (OVCAR-4): -97%
growth at 100 µM (IGROV-1 [11]): -59%
growth at 100 µM (SNB-75): -70%
growth at 100 µM (SNB-19): -91%
growth at 100 µM (SF-539): -90%
growth at 100 µM (KM12 [12]): -76%
growth at 1 µM (MDA-MB-231 [13]): 92%
growth at 1 µM (UO-31 [14]): 92%
growth at 1 µM (TK-10): 102%
growth at 1 µM (786-0): 96%
growth at 1 µM (IGROV-1 [15]): 113%
growth at 1 µM (UACC-62): 88%
growth at 1 µM (Malme-3M [16]): 96%
growth at 1 µM (SR): 94%
growth at 0.1 µM (BT-549): 103%
growth at 0.1 µM (RXF 393): 94%
growth at 0.1 µM (OVCAR-8): 97%
growth at 0.1 µM (OVCAR-5): 92%
growth at 0.01 µM (PC-3): 97%
